A word on the pIC50: it is −log10 of the IC50, conventionally taken in molar units.

SMILES strings stand for the structures. pIC50: −log10 of the molar value.

The values that follow come from patent US12162878B2 (HINOVA PHARMACEUTICALS INC., priority 2018, dated 2024).

In this experiment the test system is CWR22RV1 cells. Kind of experiment: Inhibition of proliferation of CWR22RV1 cells (CCK-8). The experiment is classed as cell-based, human. Conditions: Homo sapiens, CWR22Rv1, 144 h, 6 days. In short, it runs like this: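 Cells seeded at 1500/well, cultured overnight, then exposed to compounds in 3-fold dilutions (9 concentrations from 10 μM top final, 0.1% DMSO) for 6 days at 37 °C. Viability read by CCK-8 absorbance at 450 nm after 2.5 h; IC50 from dose-response inhibition fit.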
Regarding `Cn1cc(-c2cc(C(C)(C)O)ccc2N2CCC3(CC2)CC3)c2cc[nH]c2c1=O` [Compound 225, 4-(5-(2-hydroxypropan-2-yl)-2-(6-aza-spiro[2.5]octan-6-yl)phenyl)-6-methyl-1H-pyrrolo[2,3-c]pyridin-7(6H)-one], the pIC50 is 6.89.

`[2H]C([2H])([2H])n1cc(-c2cc(S(=O)(=O)N(C)C)ccc2N2CCC3(CC2)CC3)c2cc[nH]c2c1=O` [Compound 203, N,N-dimethyl-3-(6-trideuteromethyl-7-oxo-6,7-dihydro-1H-pyrrolo[2,3-c]pyridin-4-yl)-4-(6-aza-spiro[2.5]octan-6-yl)benzenesulfonamide] had a negative logarithm of the IC50 (pIC50) of 9.70. Against the preceding molecule, the pIC50 is 2.81 log units higher.

In turn, `Cn1cc(-c2cc(N)ccc2N2CCC3(CC2)CC3)c2cc[nH]c2c1=O` [Compound 245, 4-(5-amino-2-(6-aza-spiro[2.5]octan-6-yl)phenyl)-6-methyl-1H-pyrrolo[2,3-c]pyridin-7(6H)-one] gave a negative logarithm of the IC50 (pIC50) of 6.64.

`Cc1c[nH]c2c(=O)n(C)cc(-c3cc(S(C)(=O)=O)ccc3N3CCC4(CC3)CC4)c12` [Compound 182, 3,6-dimethyl-4-(5-(methylsulfonyl)-2-(6-aza-spiro[2.5]octan-6-yl)phenyl)-1H-pyrrolo[2,3-c]pyridin-7(6H)-one] showed a pIC50 of 7.40. This pIC50 lies 0.76 log units higher than the previous one.

Turning to `Cn1cc(-c2cc(S(=O)(=O)C3CC3)ccc2N2CC3(CCC3)C2)c2cc[nH]c2c1=O` [Compound 29, 4-(5-(cyclopropylsulfonyl)-2-(2-aza-spiro[3.3]heptan-2-yl)phenyl)-6-methyl-1H-pyrrolo[2,3-c]pyridin-7(6H)-one], the pIC50 is 7.35.

The molecule `CCS(=O)(=O)c1ccc(N2CC3(CCC3)C2)c(-c2cn(C)c(=O)c3[nH]ccc23)c1` [Compound 33, 4-(5-(ethylsulfonyl)-2-(2-aza-spiro[3.3]heptan-2-yl)phenyl)-6-methyl-1H-pyrrolo[2,3-c]pyridin-7(6H)-one] gave a negative logarithm of the IC50 (pIC50) of 7.35.

The molecule `Cn1cc(-c2cc(S(=O)(=O)C3COC3)ccc2N2CC3(CCC3)C2)c2cc[nH]c2c1=O` [Compound 31, 6-methyl-4-(5-(oxetane-3-ylsulfonyl)-2-(2-aza-spiro[3.3]heptan-2-yl)phenyl)-1H-pyrrolo[2,3-c]pyridin-7(6H)-one] showed a pIC50 of 7.30. The pIC50 values of the last two molecules are within 0.2 log units of each other.

In turn, `[2H]C([2H])([2H])n1cc(-c2cc(NS(C)(=O)=O)ccc2N2CC3(COC3)C2)c2cc[nH]c2c1=O` [Compound 48, N-(3-(6-trideuteromethyl-7-oxo-6,7-dihydro-1H-pyrrolo[2,3-c]pyridin-4-yl)-4-(2-oxa-6-aza-spiro[3.3]heptan-6-yl)phenyl)methanesulfonamide] had a pIC50 of 6.40.

Regarding `[2H]C([2H])([2H])n1cc(-c2cc(NS(=O)(=O)CC)ccc2N2CCC3(CC2)CC3C(=O)O)c2cc[nH]c2c1=O` (stereo not shown) [Compound 53, 6-(4-(ethylsulfonamide)-2-(6-trideuteromethyl-7-oxo-6,7-dihydro-1H-pyrrolo[2,3-c]pyridin-4-yl)phenyl)-6-aza-spiro[2.5]octan-1-carboxylic acid], the pIC50 was 6.26.

With `Cn1cc(-c2cc(NS(=O)(=O)C3COC3)ccc2N2CCC3(CC3)C2)c2cc[nH]c2c1=O` [Compound 191, N-(3-(6-methyl-7-O-6,7-dihydro-1H-pyrrolo[2,3-c]pyridin-4-yl)-4-(5-aza-spiro[2.4]heptan-2-yl)phenyl)oxetane-3-ylsulfonamide], the pIC50 is 6.85.

`Cn1cc(-c2cc(NS(C)(=O)=O)ccc2N2CCC3(CC3)C2)c2cc[nH]c2c1=O` [Compound 246, N-(3-(6-methyl-7-oxo-6,7-dihydro-1H-pyrrolo[2,3-c]pyridin-4-yl)-4-(5-aza-spiro[2.4]heptan-5-yl)phenyl)methanesulfonamide] showed a pIC50 of 7.52. This pIC50 lies 0.67 log units higher than the previous one.

In turn, `CCS(=O)(=O)c1ccc(N2CC3(COC3)C2)c(-c2cn(C)c(=O)c3[nH]ccc23)c1` [Compound 35, 4-(5-(ethylsulfonyl)-2-(2-oxa-6-aza-spiro[3.3]heptan-6-yl)phenyl)-6-methyl-1H-pyrrolo[2,3-c]pyridin-7(6H)-one] gave a pIC50 of 6.36.

For the molecule `Cn1cc(-c2cc(S(C)(=O)=O)ccc2N2CC3(CCC3)C2)c2cc[nH]c2c1=O` [Compound 30, 6-methyl-4-(5-(methylsulfonyl)-2-(2-aza-spiro[3.3]heptan-2-yl)phenyl)-1H-pyrrolo[2,3-c]pyridin-7(6H)-one], the pIC50 was 7.42.

`[2H]C([2H])([2H])n1cc(-c2cc(S(C)(=O)=O)ccc2N2CCC3(CC2)COC3)c2cc[nH]c2c1=O` [Compound 183, 6-trideuteromethyl-4-(5-(methylsulfonyl)-2-(2-oxa-7-aza-spiro [3.5]nonan-7-yl)phenyl)-1H-pyrrolo[2,3-c]pyridin-7(6H)-one]: the negative logarithm of the IC50 (pIC50) was 7.20.

The molecule `[2H]C([2H])([2H])n1cc(-c2cc(S(=O)(=O)C3CC3)ccc2N2CC3(COC3)C2)c2cc[nH]c2c1=O` [Compound 67, 4-(5-(cyclopropylsulfonyl)-2-(2-oxa-6-aza-spiro[3.3]heptan-6-yl)phenyl)-6-trideuteromethyl-1H-pyrrolo[2,3-c]pyridin-7(6H)-one] had a pIC50 of 6.31.

Take `Cn1cc(-c2cc(S(C)(=O)=O)ccc2N2CCC3(CC2)CC3)c2cc[nH]c2c1=O` [Compound 26, 6-methyl-4-(5(methylsulfonyl)-2-(6-aza-spiro[2.5]octan-6-yl)phenyl)-1H-pyrrolo[2,3-c]pyridin-7(6H)-one]: the pIC50 is 8.22.

`[2H]C([2H])([2H])n1cc(-c2cc(NS(=O)(=O)C3COC3)ccc2N2CC3(CCC3)C2)c2cc[nH]c2c1=O` [Compound 45, N-(3-(6-trideuteromethyl-7-oxo-6,7-dihydro-1H-pyrrolo[2,3-c]pyridin-4-yl)-4-(2-aza-spiro[3.3]heptan-2-yl)phenyl) oxetane-3-sulfonamide] had a pIC50 of 6.96.

In the case of `Cn1cc(-c2cc(S(C)(=O)=O)ccc2N2CCCC2C(=O)O)c2cc[nH]c2c1=O` (stereo not shown) [Compound 248, 1-(2-(6-methyl-7-oxo-6,7-dihydro-1H-pyrrolo[2,3-c]pyridin-4-yl)-4-(methanesulfonyl)phenyl)pyrrolidin-2-carboxylic acid], the pIC50 is 5.15.

The molecule `Cn1cc(-c2cc(C(=O)O)ccc2N2CCC3(CC2)CC3)c2cc[nH]c2c1=O` [Compound 220, 3-(6-methyl-7-oxo-6,7-dihydro-1H-pyrrolo[2,3-c]pyridin-4-yl)-4-(6-aza-spiro[2.5]octan-6-yl)benzoic acid] showed a pIC50 of 6.28. This pIC50 lies 1.13 log units higher than the previous one.

As for `Cn1cc(-c2cc(NS(=O)(=O)C3CC3)ccc2N2CC3(COC3)C2)c2cc[nH]c2c1=O` [Compound 18, N-(3-(6-methyl-7-oxo-6,7-dihydro-1H-pyrrolo[2,3-c]pyridin-4-yl)-4-(2-oxa-6-aza-spiro[3.3]heptan-6-yl)phenyl)cyclopropanesulfonamide], the negative-log IC50 (pIC50) was 6.28.

`Cn1cc(-c2cc(C(N)=O)ccc2N2CCC3(CC2)CC3)c2cc[nH]c2c1=O` [Compound 221, 3-(6-methyl-7-oxo-6,7-dihydro-1H-pyrrolo[2,3-c]pyridin-4-yl)-4-(6-aza-spiro[2.5]octan-6-yl)benzeneformamide]: the pIC50 is 6.89.

As for `[2H]C([2H])([2H])n1cc(-c2cc(S(=O)(=O)C3CC3)ccc2N2CCCC3(CC3)C2)c2cc[nH]c2c1=O` [Compound 58, 4-(5-(cyclopropylsulfonyl)-2-(5-aza-spiro[2.5]octan-5-yl)phenyl)-6-trideuteromethyl-1H-pyrrolo[2,3-c]pyridin-7(6H)-one], the pIC50 is 7.30.
